Experimental data reported in the supplement of paper PMC6045584.

Compound: Oc1ccc(/C=C/c2cc(O)cc(O)c2)cc1 [RESVERATROL]
Assay: area under dose-response curve of surviving fraction (unscaled, Aref=0) (surviving fraction x log10(nM)); higher = more resistant
Details: exposure time: 5 days; dose range 0.5-1000 nM
In short: (§1)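 Tumour cell lines in 384-well plates were exposed to eight inhibitor concentrations, from 0.5 to 1000 nM, for five days, and viability was read by CellTiter-Glo luminescence in three screens per line. Signals were normalised to DMSO-only wells, and 3-parameter logistic regression in the drc R package fitted dose-response survival curves to the surviving fractions. Area under the curve is given as the unscaled activity area. That area is taken over log10 dose with Aref = 0.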

Test System | area under dose-response curve
SCC36 HEADNECK | 3.87
OS25HAL BONE | 3.4
SG43 HEADNECK | 2.91
U2OS BONE | 3.48
SUM44 BREAST | 3.94
RDES SOFT TISSUE | 4.59
MDAMB157 BREAST | 3.39
CHLA90 AUTONOMIC GANGLIA | 3.38
CADOES1 SOFT TISSUE | 3.21
SCC47 HEADNECK | 3.79
S68 BREAST | 3.12
SNU475 LIVER | 3.3
22RV1 PROSTATE | 3.4
SG32 HEADNECK | 3.38
SCC003 HEADNECK | 3.64
JURKAT HAEMATOPOIETIC AND LYMPHOID TISSUE | 3.34
HT1080 SOFT TISSUE | 3.35
LNCAP PROSTATE | 3.05
OSHN BONE | 3.6

Test System | area under dose-response curve
HUO3N1 BONE | 3.49
BT20 BREAST | 3.71
SJSA1 BONE | 5.61
NY BONE | 3.32
NOS1 BONE | 3.77
SUM149.B1*.S BREAST | 3.7
93VU HEADNECK | 3.7
SUM159 BREAST | 3.53
ASKA SYNOVIAL | 3.84
CME SYNOVIAL | 4.4
VCAP PROSTATE | 3.11
SG27 HEADNECK | 3.59
ZR751 BREAST | 3.31
SIHA CERVIX | 3.61
BT549 BREAST | 3.52
NCIH441 LUNG | 3.72
HCT15 LARGE INTESTINE | 3.39
MDAMB453 BREAST | 3.63
MDAMB468 BREAST | 3.56

Compound: C=CCNC1=C2C[C@@H](C)C[C@H](OC)[C@H](O)[C@@H](C)/C=C(\C)[C@H](OC(N)=O)[C@@H](OC)/C=C\C=C(/C)C(=O)NC(=CC1=O)C2=O [17-AAG]
Assay: as above
Details: exposure time: 5 days; dose range 0.5-1000 nM
In short: as §1

Test System | area under dose-response curve
SCC36 HEADNECK | 1.66
OS25HAL BONE | 2.56
SG43 HEADNECK | 1.77
U2OS BONE | 2.13
SUM44 BREAST | 2.02
RDES SOFT TISSUE | 2.13
MDAMB157 BREAST | 1.61
CHLA90 AUTONOMIC GANGLIA | 2.06
CADOES1 SOFT TISSUE | 2.76
SG31 HEADNECK | 1.94
SCC47 HEADNECK | 2.29
S68 BREAST | 0.636
SNU475 LIVER | 1.66
22RV1 PROSTATE | 2.24
SG32 HEADNECK | 1.96
SCC003 HEADNECK | 2.38
JURKAT HAEMATOPOIETIC AND LYMPHOID TISSUE | 2.65
HT1080 SOFT TISSUE | 2.11
LNCAP PROSTATE | 1.33
OSHN BONE | 2.3
SG28 HEADNECK | 1.95
HUO3N1 BONE | 2.3
BT20 BREAST | 1.37

Test System | area under dose-response curve
SJSA1 BONE | 1.72
HCC78 LUNG | 1.44
NY BONE | 1.6
NOS1 BONE | 1.6
SUM149.B1*.S BREAST | 1.93
93VU HEADNECK | 2.32
143B BONE | 2.38
SUM159 BREAST | 1.72
ASKA SYNOVIAL | 1.27
CME SYNOVIAL | 1.9
VCAP PROSTATE | 2.25
YAMATO SYNOVIAL | 2.65
HCC202 BREAST | 1.59
SG27 HEADNECK | 2.94
VP229 BREAST | 1.93
ZR751 BREAST | 1.74
SIHA CERVIX | 2.23
BT549 BREAST | 1.1
NCIH441 LUNG | 2.37
HCT15 LARGE INTESTINE | 1.85
MDAMB453 BREAST | 1.3
MDAMB468 BREAST | 2.41

Compound: COc1ccc(C2=N[C@@H](c3ccc(Cl)cc3)[C@@H](c3ccc(Cl)cc3)N2C(=O)N2CCNC(=O)C2)c(OC(C)C)c1 [NUTLIN3]
Assay: as above
Details: exposure time: 5 days; dose range 0.5-1000 nM
In short: as §1

Test System | area under dose-response curve
SCC36 HEADNECK | 3.65
OS25HAL BONE | 3.29
SG43 HEADNECK | 2.8
U2OS BONE | 3.28
SUM44 BREAST | 3.26
RDES SOFT TISSUE | 3.98
MDAMB157 BREAST | 3.22
CHLA90 AUTONOMIC GANGLIA | 3.33
CADOES1 SOFT TISSUE | 2.81
SG31 HEADNECK | 3.23
SCC47 HEADNECK | 3.66
S68 BREAST | 3.12
SNU475 LIVER | 3.32
22RV1 PROSTATE | 3.26
SG32 HEADNECK | 3.75
SCC003 HEADNECK | 3.48
JURKAT HAEMATOPOIETIC AND LYMPHOID TISSUE | 3.49
HT1080 SOFT TISSUE | 3.11

Test System | area under dose-response curve
LNCAP PROSTATE | 2.82
OSHN BONE | 3.52
SG28 HEADNECK | 3.29
HUO3N1 BONE | 3.41
BT20 BREAST | 3.59
SJSA1 BONE | 3.18
HCC78 LUNG | 3.02
NY BONE | 3.28
NOS1 BONE | 3.66
SUM149.B1*.S BREAST | 3.61
93VU HEADNECK | 3.56
143B BONE | 3.5
SUM159 BREAST | 3.27
CME SYNOVIAL | 4.32
VCAP PROSTATE | 3.78
YAMATO SYNOVIAL | 4.58
HCC202 BREAST | 3.88
VP229 BREAST | 3.5
